Data from patent US4177269A, “Novel 17-esters of 17α-hydroxy gestogens, compositions containing such compounds, processes for their preparation and methods of treatment therewith” (Aktiebolaget Leo, priority 1976, dated 1979).

Legend:
[1] = biological target: T1, rabbit uterus cytosol progesterone receptor (Oryctolagus cuniculus, UniProt P06186); assay: Relative affinity to rabbit uterus cytosol progesterone receptor (3H-progesterone competition); assay type: binding; conditions: compared to progesterone; 50% competition with 3H-progesterone; 16-18 hours at 4° C.
T1 construct: One ml portions of the supernatant (rabbit uterus cytosol) were pipetted into small centrifuge tubes of glass; from tissue; host or cells: uterus cytosol (105,000×g supernatant) of female rabbits pretreated with polyestradiol phosphate
T1 sequence (P06186 1-930): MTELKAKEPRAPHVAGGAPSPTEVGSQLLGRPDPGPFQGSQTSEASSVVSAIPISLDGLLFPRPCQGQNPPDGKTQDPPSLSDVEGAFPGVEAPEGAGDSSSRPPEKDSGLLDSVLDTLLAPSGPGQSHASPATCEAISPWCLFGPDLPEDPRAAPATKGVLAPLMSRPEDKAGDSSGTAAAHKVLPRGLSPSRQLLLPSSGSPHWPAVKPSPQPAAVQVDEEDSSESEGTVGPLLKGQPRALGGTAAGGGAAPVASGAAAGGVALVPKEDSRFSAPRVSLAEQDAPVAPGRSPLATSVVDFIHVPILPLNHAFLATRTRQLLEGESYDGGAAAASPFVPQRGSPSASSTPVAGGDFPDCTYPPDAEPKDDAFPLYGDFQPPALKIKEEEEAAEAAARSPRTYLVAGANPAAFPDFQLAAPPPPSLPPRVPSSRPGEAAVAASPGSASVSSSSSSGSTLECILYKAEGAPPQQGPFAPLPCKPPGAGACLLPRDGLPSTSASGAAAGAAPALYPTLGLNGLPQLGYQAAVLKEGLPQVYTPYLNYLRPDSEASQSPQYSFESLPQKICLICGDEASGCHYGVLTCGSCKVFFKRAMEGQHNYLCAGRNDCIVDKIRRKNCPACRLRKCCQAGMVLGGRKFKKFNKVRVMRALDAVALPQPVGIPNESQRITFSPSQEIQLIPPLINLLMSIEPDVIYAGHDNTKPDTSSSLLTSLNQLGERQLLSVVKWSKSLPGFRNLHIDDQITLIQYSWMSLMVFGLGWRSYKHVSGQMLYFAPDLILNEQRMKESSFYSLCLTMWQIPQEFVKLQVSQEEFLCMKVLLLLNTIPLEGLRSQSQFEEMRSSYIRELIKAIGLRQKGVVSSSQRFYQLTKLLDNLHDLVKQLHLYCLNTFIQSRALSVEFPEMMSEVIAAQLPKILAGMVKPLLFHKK
Protocol: This example illustrates the compound's relative affinity to rabbit uterus cytosol progesterone receptor compared with progesterone. The method used for this purpose is a modification of methods already described by Kontula, K. et al. (Acta Endocrinol. 78 (1975) 574) and Terenius, L. (Steroids 23 (1974) 909) among others.
Female rabbits (3-4 pounds) from Knut Larsen, Uddevalla, Sweden, were injected i.m. with 1 mg Estradurin (polyestradiol phosphate, 1 mg/ml saline, AB Leo, Sweden). After one week, the animals were killed and the uteri were immediately removed, chilled and cut free from connective tissues. All the following operations were performed at 0°-4° C. The uteri were cut into small pieces and washed several times with 3 vol. of buffer at pH 7.4 containing 50 MM TRIS-HCl, 1.5 mM EDTA, 3 mM NaN3, 2 mM dithiothreitol, and 25% glycerol (by vol.). The tissue was homogenized in the same buffer (3 vol.) with four 15-s bursts at rheostat setting 36-37 of an Ultra Turrax (Janke and Kunkel KG, Staufen, The Federal Republic of Germany). The homogenate was centifuged in a Sorvall GLC-2 centrifuge for 15 min at 600×g. The supernatanate was recentrifuged at 105,000×g for 60 min in a Beckman ultracentrifuge model LB-65-B with rotor SW 56.
One ml portions of the supernatant (rabbit uterus cytosol) were pipetted into small centrifuge tubes of glass and were kept at -70° C. until used. The protein content was determined by the method of Lowry (J. Biol. Chem. 193 (1951) 265).
10.0 mg of each compound was dissolved in 10.0 ml 99.5% ethanol. 100 μl of this standard solution was diluted to 5.0 ml ethanol/glycerol 1:1 (v/v). The ethanol was evaporated by blowing air at 40° C. on the solution. The volume was then adjusted to 5.0 ml by adding buffer without glycerol.
The compounds were diluted with glycerol/buffer 1:1 to final concentrations between 10^-8 -10^-5 M in total 300 μl incubation media. 100 μl of each compound and of each dilution were incubated in small centrifuge tubes (2 ml) together with 100 μl (10 pg) ^3 H-progesterone (1,2,6,7-3H-progesterone, 47.8 Ci/mMol, The Radiochemical Centre, Amersham, England) and 100 μl cytosol adjusted with buffer to a final concentration of about […]. The incubations were carried out for 16-18 hours at 4° C.
The separation of bound from free radioactivity was carried out at 0° C. using the dextran coated charcoal technique (DCC). To each incubation tube was added 0.5 ml DCC-suspension (0.05% dextran-70, Pharmacia, Uppsala, Sweden and 0.5% Norit A, Sigma, Saint Louis, Missouri, U.S.A.) The tubes were agitated 2-3 times during 10 minutes whereupon they were centrifuged at 100×g for five minutes. The supernatantes were decanted directly into Scintillation vials (polyethene, Packard) containing 10 ml InstaGel (Packard). The radioactivity was counted in a Philip's liquid scintillation spectrometer Model PW 4510/00 with external standard and automatic quenching correction.
To incubation tubes were added 100 μl cytosol, 100 μl ^3 H-progesterone (10 pg) and 100 μl of different dilutions of non-radioactive progesterone in glycerol/buffer 1:1 ranging from 0-10^4 pg/100 μl. The tubes were incubated parallel with the compounds described above. The radioactivity was calculated by substracting the counted radioactivity in the incubation tubes with the radioactivity counted in incubations tubes in which the cytosol was replaced with buffer (100 μl).
The concentration of non-radioactive progesterone [P]i which competes for 50% of bound radioactive progesterone was calculated from the standard curve constructed [B] i/[B] o=0.5 where [B]i is the bound radioactivity at different concentrations of non-radioactive progesterone and [B]o is the bound radioactivity at progesterone concentration zero.
In the same manner, curves were constructed for each compound X and the concentration for each compound which competes for 50% with bound ^3 H-progesterone ([X]50) was calculated. […]

[2] = Hepatome AH 130 tumour growth inhibition in rats; assay type: in vivo, Sprague-Dawley rats; parameters: ED50: unit not given here; conditions: rat, in vivo, ip, one i.p. injection; for LD50: dose causing 50 percent lethality, column head not given; for selectivity ratio: read-out: T.I. (LD50/ED50)
Description: (§1) LD50 is the dose that causes a 50 percent lethality of the animals, and ED50 is the dose that causes a 50 percent reduction of tumour size.
(§2) The experimental design and the interpretation of the results are in accordance with the standards set by the CCNSC (Cancer Chemotherpy Reports, January 1959 and December 1962).
(§3) Experimental animals: Sprague-Dawley rats.
(§4) Tumour implant: 5 × 10^6 tumour cells i.p.
(§5) Therapy: One injection i.p. on the day following implanta-
(§6) Termination: The animals are killed on the 8th day.
(§7) Evaluation: Weights of tumours of test animals are compared
(§8) with those of control animals.

[3] = test system: Hepatome AH 130; assay: Hepatome AH 130 tumour growth inhibition in rats; assay type: in vivo, Sprague-Dawley rats; parameters: ED50: unit not given here; conditions: one i.p. injection, dose causing 50 percent reduction of tumour size, killed 8th day
Description: as §1, §2, §3, §4, §5, §6, §7, §8

[4] = test system: Ehrlich ascites tumour, ELD hyperdiploid; assay: Ehrlich ascites tumour, ELD hyperdiploid (46 chromosomes), growth inhibition in mice; assay type: in vivo, SPF NMRI mice; conditions: one i.p. injection; for Tumour weight Treated/Control: 8th day; for antitumour activity: result in words
Description: as §2
Ehrlich ascites tumour, ELD hyperdiploid
Experimental animals: SPF NMRI mice.
Tumour implant: 2 × 10^6 tumour cells i.p.
as §5, §6
Evaluation: Weight of tumours of test animals compared with
those of control animals.

[5] = test system: Walker carcinosarcoma 256; assay: Walker carcinosarcoma 256 tumour growth inhibition in rats; assay type: in vivo, Sprague-Dawley rats; parameters: ED50: unit: mg/kg; conditions: daily p.o. for 5 days; for ED50: dose causing 50 percent reduction of tumour size, killed 9th day; for antitumour activity: result in words
Description: as §1, §2
(§9) Walker carcinosarcoma 256.
as §3
(§10) Tumour implant: Tumour pieces with 2-4 mm diameter, sub-
(§11) Therapy: Daily p.o. administration for 5 days starting on
(§12) the day following implantation.
(§13) Termination: The animals are killed on the 9th day.
as §7, §8

[6] = as above; assay type: in vivo, Sprague-Dawley rats; parameters: ED50: unit: mg/kg; conditions: rat, in vivo, po, daily p.o. for 5 days; for LD50: dose causing 50 percent lethality; for selectivity ratio: read-out: T.I. (LD50/ED50)
Description: as §1, §2, §9, §3, §10, §11, §12, §13, §7, §8

Row | Compound | relative binding affinity (RBA) [1] | LD50 [2] | selectivity ratio [2] | ED50 [3] | Mortality ([4]; 50 mg/kg) | Tumour weight Treated/Control ([4]; 50 mg/kg) | ED50 [5] | LD50 [6] | selectivity ratio [6] | antitumour activity [4] | antitumour activity [5] | Mortality ([4]; 1000 mg/kg) | Tumour weight Treated/Control ([4]; 1000 mg/kg)
1 | CC(=O)[C@@]1(OC(=O)COC(=O)Cc2ccc(N(CCCl)CCCl)cc2)CC[C@H]2[C@@H]3CCC4=CC(=O)CC[C@]4(C)[C@H]3CC[C@@]21C [3:1, 17α-/4-(N,N-bis(2-chloroethyl)amino)phenylacetoxyacetoxy/pregn-4-ene-3,20-dione] | 6.6% | > 250 mg/kg | > 83 | 3 | 1/12 | 3% | 8 | > 250 mg/kg | > 31 |  |  |  | 
2 | CC(=O)[C@@]1(OC(=O)CCCOC(=O)Cc2ccc(N(CCCl)CCCl)cc2)CC[C@H]2[C@@H]3CCC4=CC(=O)CC[C@]4(C)[C@H]3CC[C@@]21C [3:4, 17α-/4-(4-(N,N-bis(2-chloroethyl)amino)phenylacetoxyy)butanoyloxy/pregn-4-ene-3,20-dione] |  | 50 mg/kg | 25 | 2 |  |  | 4 | 80 mg/kg | 20 | exhibit antitumour activity |  |  | 
3 | CC(=O)[C@@]1(OC(=O)COC(=O)CSc2ccc(N(CCCl)CCCl)cc2)CC[C@H]2[C@@H]3CCC4=CC(=O)CC[C@]4(C)[C@H]3CC[C@@]21C [3:5, 17α-/4-(N,N-bis(2-chloroethyl)amino)phenylthioacetoxyacetoxy/pregn-4-ene-3,20-dione] |  | > 250 mg/kg | > 5 | 50 |  |  |  |  |  | exhibit antitumour activity | exhibit antitumour activity |  | 
4 | CC(=O)[C@@]1(OC(=O)CCCOC(=O)c2ccc(C)c(N(CCCl)CCCl)c2)CC[C@H]2[C@@H]3CCC4=CC(=O)CC[C@]4(C)[C@H]3CC[C@@]21C [7:4, 17α-/4-(3-(N,N-bis(2-chloroethyl)amino)-4-methylbenzoyloxy)butanoyloxy/pregn-4-ene-3,20-dione] | 0.9% | > 250 mg/kg | > 15 | 16 |  |  |  |  |  | exhibit antitumour activity | exhibit antitumour activity |  | 
5 | CC(=O)[C@@]1(OC(=O)COC(=O)CCCc2ccc(N(CCCl)CCCl)cc2)CC[C@H]2[C@@H]3CCC4=CC(=O)CC[C@]4(C)[C@H]3CC[C@@]21C [Compound 3:2, 17α-/4-(4-(N,N-bis(2-chloroethyl)amino)phenyl)butanoyloxyacetoxy/pregn-4-ene-3,20-dione] | 0.7% | > 1000 mg/kg | > 10 | 100 | 0/12 | 1% | 3 | > 250 mg/kg | > 83 |  |  |  | 
6 | CC(=O)[C@@]1(OC(=O)CCCOC(=O)CCCc2ccc(N(CCCl)CCCl)cc2)CC[C@H]2[C@@H]3CCC4=CC(=O)CC[C@]4(C)[C@H]3CC[C@@]21C [Compound 3:3] | 0.6% | 180 mg/kg | 30 | 6 |  |  | 2 | 40 mg/kg | 20 | exhibit antitumour activity |  |  | 
7 | CC(=O)[C@@]1(OC(=O)CNC(=O)CCCc2ccc(N(CCCl)CCCl)cc2)CC[C@H]2[C@@H]3CCC4=CC(=O)CC[C@]4(C)[C@H]3CC[C@@]21C [Compound 4:1, 17α-/4-(4-(N,N-bis(2-chloroethyl)amino)phenyl)butanoylaminoacetoxy/pregn-4-ene-3,20-dione] | 1.1% | > 250 mg/kg | > 2 | 125 |  |  |  |  |  | exhibit antitumour activity | exhibit antitumour activity |  | 
8 | CC(=O)[C@@]1(OC(=O)COC(=O)Nc2ccc(N(CCCl)CCCl)cc2)CC[C@H]2[C@@H]3CCC4=CC(=O)CC[C@]4(C)[C@H]3CC[C@@]21C [Compound 5:1, 17α-/4-(N,N-bis(2-chloroethyl)amino)phenylcarbamoyloxyacetoxy/pregn-4-ene-3,20-dione] | 15.8% | > 250 mg/kg | > 8 | 30 |  |  |  |  |  | exhibit antitumour activity | exhibit antitumour activity | 0/12 | 1%
